Measured values: PubChem BioAssay (NCI)
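How tested: cells in 96-well plates exposed to compound for 48 hours at five concentrations. Here, GI50 denotes the concentration required for 50% inhibition of growth. Definition used: TGI = concentration required for complete inhibition of growth.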

What was measured:
Assay in all cases: NCI-60 cell line screen, 48 h
786-0 renal = tested on: 786-0 renal
A549 NSCLC = tested on: A549 NSCLC
DU-145 prostate = tested on: DU-145 prostate
HCT-116 colon = tested on: HCT-116 colon
IGROV1 ovarian = tested on: IGROV1 ovarian
LOX IMVI melanoma = tested on: LOX IMVI melanoma
NCI-H226 lung = tested on: NCI-H226 lung
OVCAR-8 ovarian = tested on: OVCAR-8 ovarian
SK-OV-3 ovarian = tested on: SK-OV-3 ovarian
U251 CNS = tested on: U251 CNS

SMILES	TGI (786-0 renal) [µM]	TGI (A549 NSCLC) [µM]	TGI (DU-145 prostate) [µM]	TGI (HCT-116 colon) [µM]	TGI (IGROV1 ovarian) [µM]	TGI (LOX IMVI melanoma) [µM]	TGI (NCI-H226 lung) [µM]	TGI (OVCAR-8 ovarian) [µM]	TGI (SK-OV-3 ovarian) [µM]	TGI (U251 CNS) [µM]	GI50 (786-0 renal) [µM]	GI50 (A549 NSCLC) [µM]	GI50 (DU-145 prostate) [µM]	GI50 (HCT-116 colon) [µM]	GI50 (IGROV1 ovarian) [µM]	GI50 (LOX IMVI melanoma) [µM]	GI50 (NCI-H226 lung) [µM]	GI50 (OVCAR-8 ovarian) [µM]	GI50 (SK-OV-3 ovarian) [µM]	GI50 (U251 CNS) [µM]
O=C1/C(=C/c2ccccc2)CN(C(=O)CCN2CCOCC2)C/C1=C\c1ccccc1	3.98	20.2	29.5	2.04	18.8	2.21	15	10.3	24.2	3.52	–	–	–	–	–	–	–	–	–	–
COC1CC(O[C@H]2CC[C@@]3(C)[C@H](CC[C@@H]4[C@@H]3CC[C@]3(C)[C@@H](C5=CC(=O)OC5)[C@@H](OC(C)=O)C[C@]43O)C2)OC(C)C1O (some centres not stated)	< 0.01	< 0.01	< 0.01	< 0.01	< 0.01	< 0.01	< 0.01	< 0.01	< 0.01	< 0.01	< 0.01	< 0.01	< 0.01	< 0.01	< 0.01	< 0.01	< 0.01	< 0.01	< 0.01	< 0.01
Cc1cc([N+](=O)[O-])c(NS(=O)(=O)c2cccc(C(=O)O)c2)cc1-c1cccnc1	> 100	> 100	> 100	> 100	> 100	> 100	> 100	> 100	> 100	> 100	> 100	> 100	> 100	> 100	> 100	> 100	> 100	> 100	> 100	> 100
COc1cc2nc(N3CCCC3)nc(NCc3ccccc3)c2cc1OC	3.07	16.3	16.5	4.12	16.2	3.36	40.4	13.7	27.4	3.92	1.65	4.1	4.62	1.82	3.66	1.71	17.3	3.2	14	1.88
CCCCOC(=O)N1CCN(/[N+]([O-])=N/Oc2ccc([N+](=O)[O-])cc2[N+](=O)[O-])CC1	5.67	64.2	12	3.53	6.44	5.06	5.95	> 100	–	21.8	2.47	21.1	3.35	2.07	2.17	2.27	2.54	25.5	–	5.85
CC(C)CCCC(C)[C@H]1CCC2[C@@H]3CCC4Cc5nc6c(nc5C[C@]4(C)C3CC[C@@]21C)CC1CC[C@@H]2C(CC[C@@]3(C)C2CC[C@@H]3C(C)CCCC(C)C)[C@@]1(C)C6 (some centres not stated)	> 100	> 100	> 100	> 100	> 100	> 100	> 100	> 100	> 100	> 100	–	–	–	–	–	–	–	–	–	–
O=C1NNC2(C(=O)N1)c1ccccc1-c1ccccc12	> 10	> 10	> 10	> 10	> 10	> 10	> 10	> 10	> 10	–	–	–	–	–	–	–	–	–	–	–
